Values quoted from earlier work as cited in patent US10561609B2, “Antiviral compositions” (The University of Liverpool, priority 2010, dated 2020).
Structures can show the parent of a compound that is named as a salt.

Conditions: according to M. Fardis and R. Oliyai; same value restated in g/L

CC(C)OC(=O)OCOP(=O)(CO[C@H](C)Cn1cnc2c(N)ncnc21)OCOC(=O)OC(C)C [tenofovir disoproxil fumarate]
water solubility: 13.4 mg/mL
